Assay [1] deals with T1, size exclusion purified monomeric Aβ42 (LMW) (Homo sapiens, UniProt P05067).
T1 construct: size exclusion purified monomeric Aβ42 (LMW)
The assay can be described thus: Assay 1: Targeting monomeric Aβ assay, ThT fluorescence. In kind it is biochemical. To be noted: for LMW (effects of compounds compared to control without compounds) - signal intensity: 37° C; for Inhibition of Aβ fibrillization: LMW, ratio and time not stated. On the procedure:
Assay 1: Targeting Monomeric Aβ Assay (Timeframe 24-48 Hrs) (See FIG. 1):
In this assay, it was started with size exclusion purified monomeric Aβ42 (LMW). This was incubated with a compound of interest (C) at 37° C. The extent of aggregation was then assessed at 24 and 48 hrs by Thioflavin T (ThT) fluorescence. […] However, it is difficult to infer from this assay alone at which point along the amyloid formation pathway the compound acts, i.e., does interfere with monomer to protofibrils transition or block protofibrils to fibril transition.
(§1) Aβ42 LMW and PF were used at a final concentration of […] and incubated alone or with the compounds at a ratio of 1:0.5 or 1:2.

For assay [2], the target named is T2, size exclusion purified protofibrillar mixture of Aβ42 (PF) (Homo sapiens, UniProt P05067).
T2 construct: size exclusion purified protofibrillar mixture of Aβ42 (PF)
T2 sequence (P05067 672-713 limits assumed): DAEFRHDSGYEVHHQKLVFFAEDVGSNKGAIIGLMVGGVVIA
Nature of the assay: Assay 2: Targeting protofibrillar Aβ assay, ThT fluorescence. Type of assay: biochemical. Particulars: for PF (effects of compounds compared to control without compounds) - signal intensity: 37° C; for Inhibition of Aβ fibrillization: PF, ratio and time not stated. The procedure: Assay 2: Targeting Protofibrillar Aβ Assay (Timeframe 24-48 Hrs) (See FIGS. 1 and 2A-2D):
In this assay it was started with a size exclusion purified protofibrillar mixture of Aβ42 (PF). This was incubated with the compound of interest (C) at 37° C. The extent of aggregation was then assessed at 24 and 48 hrs by Thioflavin T (ThT) fluorescence. […] This could occur via at least two mechanisms; i) blocking protofibrils to fibril transition or ii) inducing the dissociation/disaggregation of protofibrils.
as §1

Setting [3] is: 24 h, ratio Aβ42:compound 1:0.5, Aβ42 10 pM.

T1 sequence (P05067 672-713 limits assumed): as above

On to `O=C(/C=C/c1ccc(O)c(O)c1)O[C@@H](C(=O)O)[C@@H](O)C(=O)O` [NP7, Caftaric acid], for which the “LMW (effects of compounds compared to control without compounds) - signal intensity” value in assay [1] (24 h, ratio 1:2, Aβ42 10 pM) was “Decrease”; in assay [1] (setting [3]), “Decrease”; in assay [1] (48 h, ratio 1:0.5, Aβ42 10 pM), “Decrease”; in assay [1] (48 h, ratio 1:2, Aβ42 10 pM), “Decrease”. Moreover, the “Inhibition of Aβ fibrillization” value in assay [1] amounted to 42%; in assay [2], 35%. Further, the “PF (effects of compounds compared to control without compounds) - signal intensity” value is “Decrease” in assay [2] (24 h, ratio 1:0.5, Aβ42 10 pM); “Decrease” in assay [2] (24 h, ratio 1:2, Aβ42 10 pM); “Decrease” in assay [2] (48 h, ratio 1:0.5, Aβ42 10 pM); “Decrease” in assay [2] (48 h, ratio 1:2, Aβ42 10 pM).

Turning to Chicoric acid [NP5], the “LMW (effects of compounds compared to control without compounds) - signal intensity” value is on record as “Decrease” in assay [1] (24 h, ratio 1:2, Aβ42 10 pM); “Decrease” in assay [1] (setting [3]); “Decrease” in assay [1] (48 h, ratio 1:0.5, Aβ42 10 pM); “Decrease” in assay [1] (48 h, ratio 1:2, Aβ42 10 pM). Moreover, the “Inhibition of Aβ fibrillization” value came to 50% in assay [1] and 41% in assay [2]. Also, the “PF (effects of compounds compared to control without compounds) - signal intensity” value is reported as “Decrease” in assay [2] (24 h, ratio 1:0.5, Aβ42 10 pM); “Decrease” in assay [2] (24 h, ratio 1:2, Aβ42 10 pM); “Decrease” in assay [2] (48 h, ratio 1:0.5, Aβ42 10 pM); “Decrease” in assay [2] (48 h, ratio 1:2, Aβ42 10 pM).

The values above are taken from patent US10912803B2, “Probiotic and polyphenol against neurodegeneration” (NESTEC S.A., priority 2012, dated 2021).
